Measured values as given in US8076487B2, “Pyridone derivative and herbicide” (Kumiai Chemical Industry Co., Ltd., priority 2006, dated 2011).

What was measured:
Type in all cases: in vivo
[1] = tested on: Japanese bulrush (Scirpus juncoides Roxb.); test: Test Example 1: herbicidal effect by soil application to paddy field; details: paddy field soil application; active ingredient 1,000 g per 1 hectare; wettable powder added dropwise to water surface the day after sowing; examined on the 21st day after application
Method in brief: (§1)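 Plants were sown in flooded (3 cm) paddy soil and evaluated for herbicidal effect 21 days after soil application in a greenhouse.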

[2] = tested on: early watergrass (Echinochloa oryzicola Vasing); test: as above; details: paddy field soil application; active ingredient 1,000 g per 1 hectare; wettable powder added dropwise to water surface the day after sowing; examined on the 21st day after application
Method in brief: as §1

[3] = tested on: heartshape false pickerelweed (Monochoria vaginalis (Burm.f.) C.Presl); test: as above; details: paddy field soil application; active ingredient 1,000 g per 1 hectare; wettable powder added dropwise to water surface the day after sowing; examined on the 21st day after application
Method in brief: as §1

[4] = tested on: barnyardgrass (Echinochloa crus-galli (L.) P. Beauv. var. crus-galli); test: Test Example 2: herbicidal effect by soil application to upland field; details: soil surface spray, upland field soil, 1,000 g active ingredient per hectare, 21st day after application
Method in brief: (§2)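 In this soil-application test, sown and soil-covered pots are sprayed uniformly with the formulation diluted in water, giving 1,000 g of active ingredient per ha in a volume of 1,000 L per ha. Plants then grow in a greenhouse for 21 days before herbicidal scoring by a standard scale.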

[5] = tested on: green foxtail (Setaria viridis (L.) P. Beauv.); test: as above; details: soil surface spray, upland field soil, 1,000 g active ingredient per hectare, 21st day after application
Method in brief: as §2

[6] = tested on: slender amaranth (Amaranthus viridis L.); test: as above; details: soil surface spray, upland field soil, 1,000 g active ingredient per hectare, 21st day after application
Method in brief: as §2

[7] = tested on: velvetleaf (Abutilon theophrasti medicus); test: as above; details: soil surface spray, upland field soil, 1,000 g active ingredient per hectare, 21st day after application
Method in brief: as §2

[8] = tested on: barnyardgrass (Echinochloa crus-galli (L.) P. Beauv. var. crus-galli); test: Test Example 3: herbicidal effect by application to upland field (foliage treatment); details: foliage treatment, 1,000 g active ingredient per 1 hectare, 14th day after application, greenhouse
Method in brief: (§3)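 Seeds went into pots of field soil and grew under glass for two weeks. The whole plant was then sprayed from above with diluted wettable powder delivering 1,000 g/ha of active ingredient. Plants stayed in the greenhouse, and injury was graded against a standard 14 days after spraying.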

[9] = tested on: green foxtail (Setaria viridis (L.) P. Beauv.); test: as above; details: foliage treatment, 1,000 g active ingredient per 1 hectare, 14th day after application, greenhouse
Method in brief: as §3

[10] = tested on: slender amaranth (Amaranthus viridis L.); test: as above; details: foliage treatment, 1,000 g active ingredient per 1 hectare, 14th day after application, greenhouse
Method in brief: as §3

[11] = tested on: velvetleaf (Abutilon theophrasti medicus); test: as above; details: foliage treatment, 1,000 g active ingredient per 1 hectare, 14th day after application, greenhouse
Method in brief: as §3

SMILES	herbicidal effect, Scirpus juncoides Roxb. [1]	herbicidal effect, Echinochloa oryzicola Vasing [2]	herbicidal effect, Monochoria vaginalis (Burm. f.) C. Presl [3]	herbicidal effect (index), Barnyardgrass [4]	herbicidal effect (index), Green Foxtail [5]	herbicidal effect (index), Slender Amaranth [6]	herbicidal effect (index), Velvetleaf [7]	herbicidal effect, Barnyardgrass [8]	herbicidal effect, Green Foxtail [9]	herbicidal effect, Slender Amaranth [10]	herbicidal effect, Velvetleaf [11]
Cn1ncc(C(=O)c2ccc(C(F)(F)F)n(C)c2=O)c1OCc1ccccc1 [IV-190]	5 (90% or more of herbicidal effect and crop phytotoxicity)	5 (90% or more of herbicidal effect and crop phytotoxicity)	5 (90% or more of herbicidal effect and crop phytotoxicity)	5 (90% or more of herbicidal effect and crop phytotoxicity)	5 (90% or more of herbicidal effect and crop phytotoxicity)	5 (90% or more of herbicidal effect and crop phytotoxicity)	5 (90% or more of herbicidal effect and crop phytotoxicity)	5 (90% or more of herbicidal effect and crop phytotoxicity)	4 (70 to less than 90% of herbicidal effect and crop phytotoxicity)	5 (90% or more of herbicidal effect and crop phytotoxicity)	5 (90% or more of herbicidal effect and crop phytotoxicity)
CCCS(=O)(=O)Oc1c(C(=O)c2ccc(C(F)(F)F)n(C)c2=O)cnn1C [IV-196]	5 (90% or more of herbicidal effect and crop phytotoxicity)	5 (90% or more of herbicidal effect and crop phytotoxicity)	5 (90% or more of herbicidal effect and crop phytotoxicity)	5 (90% or more of herbicidal effect and crop phytotoxicity)	4 (70 to less than 90% of herbicidal effect and crop phytotoxicity)	5 (90% or more of herbicidal effect and crop phytotoxicity)	5 (90% or more of herbicidal effect and crop phytotoxicity)	4 (70 to less than 90% of herbicidal effect and crop phytotoxicity)	3 (50 to less than 70% of herbicidal effect and crop phytotoxicity)	5 (90% or more of herbicidal effect and crop phytotoxicity)	5 (90% or more of herbicidal effect and crop phytotoxicity)
Cn1ncc(C(=O)c2ccc(C(F)(F)F)n(C)c2=O)c1OC(=O)c1ccccc1 [IV-197]	5 (90% or more of herbicidal effect and crop phytotoxicity)	5 (90% or more of herbicidal effect and crop phytotoxicity)	5 (90% or more of herbicidal effect and crop phytotoxicity)	4 (70 to less than 90% of herbicidal effect and crop phytotoxicity)	4 (70 to less than 90% of herbicidal effect and crop phytotoxicity)	5 (90% or more of herbicidal effect and crop phytotoxicity)	5 (90% or more of herbicidal effect and crop phytotoxicity)	4 (70 to less than 90% of herbicidal effect and crop phytotoxicity)	4 (70 to less than 90% of herbicidal effect and crop phytotoxicity)	5 (90% or more of herbicidal effect and crop phytotoxicity)	5 (90% or more of herbicidal effect and crop phytotoxicity)
Cn1ncc(C(=O)c2ccc(C(F)(F)F)n(C)c2=O)c1OC(=O)c1ccc(C(C)(C)C)cc1 [IV-198]	5 (90% or more of herbicidal effect and crop phytotoxicity)	5 (90% or more of herbicidal effect and crop phytotoxicity)	5 (90% or more of herbicidal effect and crop phytotoxicity)	3 (50 to less than 70% of herbicidal effect and crop phytotoxicity)	3 (50 to less than 70% of herbicidal effect and crop phytotoxicity)	5 (90% or more of herbicidal effect and crop phytotoxicity)	4 (70 to less than 90% of herbicidal effect and crop phytotoxicity)	4 (70 to less than 90% of herbicidal effect and crop phytotoxicity)	3 (50 to less than 70% of herbicidal effect and crop phytotoxicity)	5 (90% or more of herbicidal effect and crop phytotoxicity)	5 (90% or more of herbicidal effect and crop phytotoxicity)
Cn1ncc(C(=O)c2ccc(C(F)(F)F)n(C)c2=O)c1OC(=O)OCc1ccccc1 [IV-199]	5 (90% or more of herbicidal effect and crop phytotoxicity)	5 (90% or more of herbicidal effect and crop phytotoxicity)	5 (90% or more of herbicidal effect and crop phytotoxicity)	5 (90% or more of herbicidal effect and crop phytotoxicity)	4 (70 to less than 90% of herbicidal effect and crop phytotoxicity)	5 (90% or more of herbicidal effect and crop phytotoxicity)	5 (90% or more of herbicidal effect and crop phytotoxicity)	4 (70 to less than 90% of herbicidal effect and crop phytotoxicity)	3 (50 to less than 70% of herbicidal effect and crop phytotoxicity)	5 (90% or more of herbicidal effect and crop phytotoxicity)	5 (90% or more of herbicidal effect and crop phytotoxicity)
Cn1ncc(C(=O)c2ccc(C(F)(F)F)n(C)c2=O)c1OC(=O)OCc1ccc(Cl)cc1 [IV-200]	5 (90% or more of herbicidal effect and crop phytotoxicity)	5 (90% or more of herbicidal effect and crop phytotoxicity)	5 (90% or more of herbicidal effect and crop phytotoxicity)	5 (90% or more of herbicidal effect and crop phytotoxicity)	4 (70 to less than 90% of herbicidal effect and crop phytotoxicity)	5 (90% or more of herbicidal effect and crop phytotoxicity)	5 (90% or more of herbicidal effect and crop phytotoxicity)	4 (70 to less than 90% of herbicidal effect and crop phytotoxicity)	3 (50 to less than 70% of herbicidal effect and crop phytotoxicity)	5 (90% or more of herbicidal effect and crop phytotoxicity)	5 (90% or more of herbicidal effect and crop phytotoxicity)
CCCn1c(C(F)(F)F)ccc(C(=O)c2cnn(CC)c2OS(=O)(=O)CCC)c1=O [IV-202]	5 (90% or more of herbicidal effect and crop phytotoxicity)	5 (90% or more of herbicidal effect and crop phytotoxicity)	5 (90% or more of herbicidal effect and crop phytotoxicity)	5 (90% or more of herbicidal effect and crop phytotoxicity)	5 (90% or more of herbicidal effect and crop phytotoxicity)	5 (90% or more of herbicidal effect and crop phytotoxicity)	5 (90% or more of herbicidal effect and crop phytotoxicity)	5 (90% or more of herbicidal effect and crop phytotoxicity)	5 (90% or more of herbicidal effect and crop phytotoxicity)	5 (90% or more of herbicidal effect and crop phytotoxicity)	5 (90% or more of herbicidal effect and crop phytotoxicity)
CCn1ncc(C(=O)c2ccc(C(F)(F)F)n(CCOCCOC)c2=O)c1O [IV-203]	5 (90% or more of herbicidal effect and crop phytotoxicity)	5 (90% or more of herbicidal effect and crop phytotoxicity)	5 (90% or more of herbicidal effect and crop phytotoxicity)	5 (90% or more of herbicidal effect and crop phytotoxicity)	5 (90% or more of herbicidal effect and crop phytotoxicity)	5 (90% or more of herbicidal effect and crop phytotoxicity)	5 (90% or more of herbicidal effect and crop phytotoxicity)	5 (90% or more of herbicidal effect and crop phytotoxicity)	5 (90% or more of herbicidal effect and crop phytotoxicity)	5 (90% or more of herbicidal effect and crop phytotoxicity)	5 (90% or more of herbicidal effect and crop phytotoxicity)
